{"source": "paper PMC12160547", "about": "“Identification of a Novel Small Molecule STING Agonist Reshaping the Immunomicroenvironment of Pancreatic Ductal Adenocarcinoma” (International Journal of Biological Sciences, 2025)", "key": {"[1]": {"tested_on": "subcutaneous pancreatic tumor", "experiment": "CD45.1 T cell or BMDM transfer into CD45.2 tumor-bearing mice", "assay_type": "in vivo"}, "[2]": {"experiment": "Metabolite profiling in liver microsomes, 60 min incubation", "assay_type": "in vitro ADME, mouse", "conditions": "D166 incubated 60 min; selected ion chromatographic peak areas"}, "[3]": {"experiment": "Pharmacokinetic parameters, i.v. and p.o.", "assay_type": "in vivo", "conditions": "plasma"}, "[4]": {"tested_on": "pancreatic tumor organoids", "experiment": "Pancreatic tumor organoid viability (AO/PI staining, CellTiter-Glo 3D)", "assay_type": "cell-based, human", "description": "Pancreatic tumor organoids were derived from patients diagnosed with pancreatic ductal adenocarcinoma at Ruijin Hospital, affiliated with Shanghai Jiao Tong University School of Medicine. Inclusion criteria required a confirmed histopathological diagnosis of pancreatic ductal adenocarcinoma and the absence of prior neoadjuvant treatment. After obtaining informed consent from the patients, tumor tissues were excised during surgery and preserved in a tissue preservation solution (Absin). The tumor samples were promptly minced into small fragments in pre-chilled RPMI-1640 and digested for 20 minutes at 37°C using the Human Tumor Dissociation Kit (Miltenyi Biotec). The resulting single-cell suspension was filtered through a 100-µm mesh (Falcon) and seeded onto Matrigel (Corning). Following a 30-minute incubation at 37°C, OM12 (Omabio) complete organoid medium was added around the periphery of the Matrigel. The tissue-derived cells successfully grew in a three-dimensional format. The viability of the organoids was assessed using CellTiter-Glo® 3D Cell Viability Assay (Promega) reagents. […] Luminescence was subsequently measured using the BioTek Synergy LX multimode reader (Agilent). […] Acridine orange (AO) binds to the nuclei of all cells, emitting green fluorescence, while propidium iodide (PI) penetrates the cell membrane to stain dead cells red. […]"}, "[5]": {"tested_on": "human STING variants (R232)", "experiment": "Differential scanning fluorimetry (DSF)", "assay_type": "binding", "conditions": "n = 3", "description": "(§1) human STING variants (R232) and mouse STING (R231) in differential scanning\n(§2) fluorimetry (DSF) assay. The data were shown as the mean value of fluorescence (n =\n(§3) (1 picture or pasted object on this page, not shown here)"}, "mouse STING (R231)": {"molecular_target": "T1, mouse STING (R231) (Mus musculus, UniProt Q3TBT3)", "T1 sequence (Q3TBT3 1-378)": "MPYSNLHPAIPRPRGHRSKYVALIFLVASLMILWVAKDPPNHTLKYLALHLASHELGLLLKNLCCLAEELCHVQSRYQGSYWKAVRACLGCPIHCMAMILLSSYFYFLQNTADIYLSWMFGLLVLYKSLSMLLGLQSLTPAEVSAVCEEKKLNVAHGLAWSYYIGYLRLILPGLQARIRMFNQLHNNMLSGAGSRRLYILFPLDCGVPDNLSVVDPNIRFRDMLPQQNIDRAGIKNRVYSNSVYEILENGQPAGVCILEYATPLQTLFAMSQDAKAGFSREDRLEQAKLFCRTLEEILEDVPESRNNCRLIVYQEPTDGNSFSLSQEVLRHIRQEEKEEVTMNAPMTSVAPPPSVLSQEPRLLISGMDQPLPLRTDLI", "experiment": "Differential scanning fluorimetry (DSF)", "assay_type": "binding", "conditions": "n = 3", "description": "as §1, §2, §3"}, "[6]": {"experiment": "Metabolite profiling in liver microsomes, 60 min incubation", "assay_type": "in vitro ADME, human", "conditions": "D166 incubated 60 min; selected ion chromatographic peak areas"}, "[7]": {"tested_on": "orthotopic PDAC microenvironment", "experiment": "Flow cytometry and scRNA-seq of orthotopic PDAC microenvironment", "assay_type": "in vivo, mice", "procedure": "Bulk RNA sequencing was performed by GenePlus (China) on pancreatic cancer organoids treated with 10 μM of […] or MSA-2, compared to a control group, with three biological replicates. The sequencing data are available for access and analysis via the provided website. Single-cell RNA sequencing (scRNA-seq) was conducted by NovelBio (China) on in situ mouse pancreatic tumors following tissue digestion. The resulting sequencing data were analyzed using R software. Mouse tumors were digested using the Mouse Tumor Dissociation Kit (Miltenyi Biotec) according to the manufacturer's protocol. The resulting single-cell suspension was filtered through a 70-micron mesh to ensure a homogeneous cell population. Cells were stained with fluorescently labeled antibodies for flow cytometry at 4°C on ice for 30 minutes. After washing off unbound antibodies, fluorescence was detected using a Beckman CytoFlex S flow cytometer. For co-cultured immune cells, separated T cells and macrophages were similarly stained with flow cytometry antibodies. For cytokine staining, cells were pre-stimulated with the eBioscienceTM Cell Stimulation Cocktail for 4 hours. For intracellular protein staining, after surface staining, cells were fixed and permeabilized using the BD Cytofix/CytopermTM Fixation/Permeabilization Kit, followed by staining for intracellular proteins. Flow cytometry data were analyzed using FlowJo 10 software."}, "[8]": {"tested_on": "pancreatic orthotopic tumor", "experiment": "Pancreatic orthotopic tumor model", "assay_type": "in vivo, C57BL/6 mice", "procedure": "For the pancreatic orthotopic tumor model, mice were anesthetized using […] (2,2,2-tribromoethanol) (Aladdin), and the pancreas was surgically exposed. Approximately 5 × 10^5 tumor cells suspended in 50 μL PBS were injected into the pancreas. The incision was then closed, and the mice were allowed to recover under close observation. On days 9, 12, and 15, the mice received intraperitoneal injections of three different concentrations of the drug. As with the subcutaneous model, the mice were euthanized on day 25, tumors were collected, weighed, and further analyzed. Additionally, at least 10 mice from each group were randomly selected to undergo the same treatments without euthanasia, and their survival times were recorded to generate survival curves.\nPancreatic orthotopic tumor models were established using mouse pancreatic tumor cell lines (Pan02-luc and KPC-luc). Mice were intraperitoneally injected with 200 µL of D-Luciferin working solution (15 mg/mL) (Yeasen) and continuously anesthetized with isoflurane. Ten minutes after injection, the intensity and distribution of luciferase luminescence were measured using the Tanon ABL-X5 in vivo imaging system. Tumor size was monitored weekly, with consistent exposure times and intensities for imaging.\nMultiplex cytokine detection was performed using Luminex cytokine bead array technology provided by WayenBio, Shanghai. In the mouse tumor model, levels of multiple cytokines were simultaneously measured and normalized to tumor weight. For the quantification of specific cytokines, such as IL-6 and IFN-β, enzyme-linked immunosorbent assay (ELISA) kits from Abclonal were used. The assays were conducted according to the manufacturer's instructions."}, "[9]": {"experiment": "Metabolite profiling in liver microsomes, 60 min incubation", "assay_type": "in vitro ADME, dog", "conditions": "D166 incubated 60 min; selected ion chromatographic peak areas"}, "[10]": {"conditions": "CD45.1 bone marrow-derived macrophages transferred"}, "[11]": {"conditions": "flow cytometry of tumor suspensions"}}}
{"smiles": "[2H]C([2H])([2H])Oc1cc2cc(C(=O)CCC(=O)O)sc2cc1OC([2H])([2H])[2H]", "note": "[D166]", "values": [{"measurement": "tumor progression", "setting": "[1]; CD45.1 T cells transferred, D166 concentration increased", "value": "slowed"}, {"measurement": "expression of M1 macrophage markers (CD86 and iNOS) in CD45.1 macrophages", "setting": "[1]; [10]", "value": "increased"}, {"measurement": "expression of M2 markers in CD45.1 macrophages", "setting": "[1]; [10]", "value": "decreased"}, {"measurement": "IFNG, GZMB, and PDCD1 in the CD45.1 T cells", "setting": "[1]; sorted CD45.1 cells", "value": "significant upregulation"}, {"measurement": "Relative Peak Area Abundance (%) MLM", "setting": "[2]", "value": 94.2, "unit": "%"}, {"measurement": "AUC(0-inf)", "setting": "[3]; iv, average of three runs", "value": 750, "unit": "ng·h/mL"}, {"measurement": "MRT inf", "setting": "[3]; iv, average of three runs", "value": 15.6, "unit": "min"}, {"measurement": "clearance", "setting": "[3]; iv, average of three runs", "value": 22.5, "unit": "mL/min/kg"}, {"measurement": "half-life", "setting": "[3]; iv, average of three runs", "value": 45, "unit": "min"}, {"measurement": "Vd", "setting": "[3]; iv, average of three runs, read-out: Vz", "value": 1.45, "unit": "L/kg"}, {"measurement": "AUC(0-inf)", "setting": "[3]; po, average of three runs", "value": 2120, "unit": "ng·h/mL"}, {"measurement": "MRT inf", "setting": "[3]; po, average of three runs", "value": 66, "unit": "min"}, {"measurement": "half-life", "setting": "[3]; po, average of three runs", "value": 81, "unit": "min"}, {"measurement": "bioavailability", "setting": "[3]; p.o., oral bioavailability", "value": 93.8, "unit": "%"}, {"measurement": "viability of pancreatic tumor organoids", "setting": "[4]; increased concentration of D166", "value": "decreased viability"}, {"measurement": "inhibiting organoid viability compared with ADU-S100, MSA-2, SR-717, MK-1454 and DXMAA", "setting": "[4]; organoids, 10μM", "value": "better efficacy"}, {"measurement": "thermal stability of human STING variants (R232)", "setting": "[5]", "value": "increased"}, {"measurement": "thermal stability of mouse STING (R231)", "setting": "mouse STING (R231)", "value": "increased"}, {"measurement": "Relative Peak Area Abundance (%) HLM", "setting": "[6]", "value": 98.5, "unit": "%"}, {"measurement": "proportion of ductal cells (including cancer cells) and fibroblasts", "setting": "[7]; 10 mg/kg D166, 10X single-cell sequencing", "value": "significant reduction"}, {"measurement": "F4/80-positive macrophages among the myeloid cells", "setting": "[7]; [11]", "value": "significant increase"}, {"measurement": "proportion of CD4+ and CD8+ T cells", "setting": "[7]; [11]", "value": "significantly increased"}, {"measurement": "cytokine levels in the TME, including IL-6, IFN-β, and TNF-α", "setting": "[8]; higher D166 doses, ELISA", "value": "elevated cytokine levels"}, {"measurement": "inhibition of tumor proliferation, weekly in vivo imaging", "setting": "[8]; increasing D166 concentrations, compared with DMXAA", "value": "more potent effect than DMXAA"}, {"measurement": "pancreatic tumor progression", "setting": "[8]; intraperitoneal injection at varying doses", "value": "significant dose-dependent inhibition"}, {"measurement": "Relative Peak Area Abundance (%) DLM", "setting": "[9]", "value": 98.6, "unit": "%"}]}
